Entries after “also recorded” stand apart in the source; their conditions may differ. Where two headings read alike, the source gives them in different places.
Experiments:
C57BL/6 mice [1] = test: Number of autonomic activity of mice (YLS-1A autonomic activity recorder); type: in vivo; conditions: for Number of Autonomic activity (time): 10 mg/kg intragastric once daily, counted 30 min after administration at 6th day
Protocol: 110 mice were randomly selected to observe the number of their autonomic activity. The mice was placed into the YLS-1A multi-functional mice autonomic activity recorder, and after 1 min of adaption, the mice's activity was counted within a time period from the end of 1st min to 4th min. 96 mice with the number of autonomic activity between 70˜140 were screened out, divided randomly into 8 groups, and intragastrically administrated with the drug compounds at a dose listed in Table 1, one time daily for 7 days consecutively. The solvent control group was administrated with 2% Tween-80 aqueous solution in the same volume. All mice were placed into the autonomic activity recorder 30 min after administration at 6th day. After 1 min of adaption, the mice's activity was counted within a time period from the end of 1st min to 4th min.
(§1) 130 mice were randomly selected to observe the number of their autonomic activity. The method was the same with that of Experiment 1. 108 mice with the number of autonomic activity between 70˜140 were screened out, divided randomly into 9 groups, and intragastrically administrated with the drug compounds at a dose listed in Table 2, one time daily for 7 days consecutively. The solvent control group was administrated with 2% Tween-80 aqueous solution in the same volume. 30 min after administration at 6th day, the number of the autonomic activity of each mouse was observed. 30 min after administration at 7th day, the immobility time in tail suspension test was observed. The method was the same with that in Experiment 1.

C57BL/6 mice [2] = test: Depression model test of anti-blepharoptosis caused by reserpine (akinesia, blepharoptosis, shell temperature); type: in vivo; conditions: for Degree of eye-closure: score 0-4 one hour after reserpine; for responders at 10 mg/kg: Mus musculus, po, 1 h, one hour after reserpine, 7.5 cm circle, 15-second observation, read-out: “out-of-circle” ratio
Protocol: 120 male C57BL/6 mice were randomly selected to observe the number of their autonomic activity. The mice was placed into the YLS-1A multi-functional mice autonomic activity recorder, and after 1 min of adaption, the activity of the mice was counted within a time period from the end of 1st min to 4th min. 96 mice with the number of autonomic activity between 70˜140 were screened out, divided randomly into 8 groups, and intragastrically administrated with the drug compounds at a dose listed in Table 3, one time daily for 7 days consecutively. The solvent control group was administrated with 2% Tween-80 aqueous solution in the same volume. Except the normal control group, 30 min after the last administration, each group was injected intraperitoneally with reserpine at a dose of 4 mg/kg. Next, akinesia, blepharoptosis and shell temperature were observed.
I Akinesia: one hour after intraperitoneal injection of reserpine, the mice were placed at the center of a circle with a diameter of 7.5 cm for a 15-second observation to calculate the “out-of-circle” ratio.
II Blepharoptosis: one hour after intraperitoneal injection of reserpine, the eye closure of mice was observed and scored by the following standard: eyelids open, 0; eyelids ¼ closed, 1; eyelids 2/4 closed, 2; eyelids ¾ closed, 3; eyelids closed completely, 4.
III Shell temperature: two hours after intraperitoneal injection of reserpine, the shell temperature of the abdomen of the mice was measured.
120 C57BL/6 mice were randomly selected to observe the number of their autonomic activity. The method was the same with that of Experiment 1. 100 mice with the number of autonomic activity between 70˜140 were screened out, divided randomly into 10 groups, and intragastrically administrated with the drug compounds at a dose listed in Table 4, one time daily for 7 days consecutively. The mice in the normal group and the solvent control group were administrated with 2% Tween-80 aqueous solution in the same volume. Except the normal control group, 30 min after the last administration, each group was injected intraperitoneally with reserpine at a dose of 4 mg/kg. Next, akinesia, blepharoptosis and shell temperature were observed. Observation method was the same with that of Experiment 1.

[3] = Chinese patent application 201010169679.9; cited from earlier work
C57BL/6 mice [4] = test: "Acquired despair" depression model of tail suspension test in mice; type: in vivo; conditions: 10 mg/kg intragastric for 7 days; compared with the solvent control group
Protocol: 30 min after administration at 7th day, the mice was fixed on a sustainer with a rubberized cloth at 1 cm close to the end of the tail of mice, making the mice hanged upside down. The head of the mice was about 30 cm above the table and its sight was separated from the neighboring mouse with a plate. Usually, the mice might manage to struggle in hopes of overcoming the abnormal body position. […] The accumulated immobility time within 6 min of each mouse was observed, which was regarded as “despair time”.
as §1

C57BL/6 mice [5] = test: Forced swimming experiment in mice; type: in vivo
Protocol: After 1˜2 days of adaptive feed, 80 male C57BL/6 mice, aged 6˜8 weeks and weighing 18˜22 g, were placed into the YLS-1A multi-functional mice autonomic activity recorder. After 1 min of adaption, the activity of the mice was counted within a time period from the end of 1st min to 4th min. 60 mice with the number of autonomic activity between 70˜140 were screened out, divided randomly into 6 groups, and intragastrically administrated with the drug compounds at a dose listed in Table 5, one time daily for 7 days consecutively. The solvent control group was administrated with 2% Tween-80 aqueous solution in the same volume. After the administration at 6th day, the mice were placed into a cylindrical aquarium with a water depth of 10 cm and 25° C. to force the mice to swim. After 15 min, the mice were taken out, dried and returned to the cage. 24 hours later, 30 min after the last intragastrical administration, the mice were placed into a glass bottle with a diameter of 10 cm, a height of 30 cm and a water depth of 10 cm, and the temperature of the water in the bottle was at 25° C. The mice were separated with an opaque partition, so as not to influence each other. After 2 min of adaption, an accumulated immobility time from the end of 2nd min to 6th min was recorded.

mice = test: Anti-depression effect in the tested models (overall conclusion); type: in vivo; conditions: in the tested model at the tested dose
Description: Based on the aforesaid experiments, the following conclusion can be drawn: • 1.

[6] = 10 mg/kg intragastric 7 days, compared with the solvent control group
[7] = Experiment 2, 10 mg/kg intragastric 7 days, reserpine 4 mg/kg i.p., abdomen, two hours after reserpine, ±SD
[8] = Experiment 2, 10 mg/kg intragastric 7 days, reserpine 4 mg/kg i.p., ±SD
[9] = Experiment 2, 10 mg/kg intragastric 7 days, reserpine 4 mg/kg i.p.
[10] = 10 mg/kg, compared with the solvent control group

Row | Compound | Number of Autonomic activity (time) (C57BL/6 mice [1]; Experiment 1, end of 1st min to 4th min) | Blepharoptosis, “out-of-circle” ratio and shell temperature after reserpine (effect in words) (C57BL/6 mice [2]; [6]) | Change in the shell temperature (ΔT ° C.) (C57BL/6 mice [2]; Experiment 1, 10 mg/kg intragastric 7 days, reserpine 4 mg/kg i.p., abdomen, two hours after reserpine, ±SD) [°C] | Degree of eye-closure (C57BL/6 mice [2]; Experiment 1, 10 mg/kg intragastric 7 days, reserpine 4 mg/kg i.p., ±SD) | Change in the shell temperature (T ° C.) (C57BL/6 mice [2]; [7]) [°C] | Degree of eye-closure (C57BL/6 mice [2]; [8]) | responders at 10 mg/kg (C57BL/6 mice [2]; Experiment 1, 10 mg/kg intragastric 7 days, reserpine 4 mg/kg i.p.) [%] | responders at 10 mg/kg (C57BL/6 mice [2]; [9]) [%] | Anti-depressive effect in animal experiments (in words) [3] | Effect on autonomic activity of mice (in words) (C57BL/6 mice [1]; 10 mg/kg intragastric, one week, compared with the solvent control group) | Number of Autonomic activity (time) (C57BL/6 mice [1]; Experiment 2) | Effect on immobility time in tail suspension test (in words) (C57BL/6 mice [4]) | Degree of eye closure / blepharoptosis after reserpine compared with I-1 (in words) (C57BL/6 mice [2]; 10 mg/kg, compared with I-1) | Blepharoptosis after reserpine (effect in words) (C57BL/6 mice [2]; [10]) | Shell temperature and “out-of-circle” ratio after reserpine (effect in words) (C57BL/6 mice [2]; [10]) | Immobility time in the forced swimming test in mice(s) (C57BL/6 mice [5]; 10 mg/kg intragastric once daily for 7 days, 30 min after last administration, end of 2nd min to 6th min) | Effect on immobility time in the forced swimming test (in words) (C57BL/6 mice [5]; within the dosage range (5-10 mg/kg), compared with the solvent control group) | Anti-depression effect compared with the pharmacologic effect of I-1 (in words) (mice)
1 | COc1cc(/C=C/C(=O)NCC(C)C)cc2c1OCO2 [Compound I-1, N-isobutyl-5′-methoxy-3′,4′-methylenedioxy cinnamamide] | 113.92 ± 14.24 | improved significantly; also recorded: remarkably improve | 2.05 ± 0.24 | 2.67 ± 0.89 | 27.80 ± 0.61 | 2.91 ± 0.75 | 17 | 10 | significant anti-depressive effect | – | – | – | – | – | – | – | – | –
2 | O=C(/C=C/c1cc2c(c(C(F)(F)F)c1)OCO2)N1CCCCC1 [Compound I-10] | – | antagonizing the decrease of shell temperature, akinesia and improving the degree of eye closure | – | – | 27.15 ± 1.20 | 1.80 ± 1.32 | – | 30 | – | had no effect | 95.30 ± 15.06 | reduce the immobility time of the mice in tail suspension test significantly; also recorded: significantly shorten the immobility time | increased improvement | improve blepharoptosis of the mice significantly | to a certain degree but without statistically significant difference | 83.07 ± 31.03 | shortening the immobility time; also recorded: shorten the immobility time | increased to some degree

— patent US10071989B2, “Substituted cinnamamide derivative, preparation method and use thereof” (TASLY PHARMACEUTICAL GROUP CO., LTD., priority 2011, dated 2018)
